Series [1] deals with T1, HIV-1 integrase (Human immunodeficiency virus type 1 group M subtype B, UniProt P04585).
T1 construct: Expression and purification of the recombinant HIV-1 integrase in Escherichia coli; made in house; host or cells: Escherichia coli
Briefly: Disintegration assay with Y-oligomer substrate. The series is classed as biochemical. The following applies: for IC50: In vitro IC50 Disintegration. How it is done: (§1) Recombinant HIV integrase and oligonucleotide substrates. Expression and purification of the recombinant HIV-1 integrase in Escherichia coli were performed according to (Leh et al., 2000; Marchand et al., 2001) with addition of 10% glycerol to all buffers. The preparation of the Q148C/SSS-mutant integrase will be described elsewhere (Johnson et al., 2005). The oligonucleotide substrates, except those used for the disulfide crosslinking (FIG. 5A), were purchased from Integrated DNA Technologies, Inc. (Coraville, Iowa) and purified by polyacrylamide gel. The single-stranded oligonucleotides were 5′-end labeled with [γ^32P]-ATP (Perkin Elmer, Wellesley, M A) and T4 polynucleotide kinase (New England BioLabs, Ipswich, M A). Unincorporated nucleotide was removed using mini Quick Spin Oligo columns (Roche Diagnostics, Indianapolis, Ind.). Substrates were obtained after annealing with complementary non-labeled oligonucleotides. The thiol-modified substrate (FIG. 5A) for disulfide crosslinking assay was synthesized as essentially described by W. Santos and G. Verdine (Department of Chemistry and Chemical Biology, Harvard University, Cambridge, Mass.) (They and Verdine, 2002).
(§2) Integrase catalytic assays. Reactions were performed in 10 μl with 300 nM of recombinant IN, 20 nM of the 5′-end [^32P]-labeled oligonucleotide substrates and inhibitors at the indicated concentrations. 10% DMSO was included in controls. Reactions were incubated for 40 min at 37° C. in a buffer containing a final concentration of 25 mM MOPS, pH 7.2, 25 mM NaCl, 14.3 mM β-mercaptoethanol and 7.5 mM of divalent cations (MgCl2 or MnCl2 as indicated). Reactions were stopped by addition of 20 μl loading dye (10 mM EDTA, 98% deionized formamide, 0.025% xylene cyanol and 0.025% bromophenol blue). Reactions were heated at 95° C. for 1 min before electrophoresis in 20% polyacrylamide-7 M urea gels. Gels were dried and reaction products were visualized and quantitated with a Molecular Dynamics PhosphorImager (Sunnyvale, Calif.). Densitometric analyses were performed using ImageQuant from the Molecular Dynamics software. The concentrations at which enzyme activity was reduced by 50% (IC50), was determined using “Prism” software (GraphPad Software, San Diego, Calif.) for nonlinear regression to fit dose-response data to logistic curve models.

The target of series [2] is T1, HIV-1 integrase. Briefly: Integrase catalytic assay, 3′-processing (3′-P), 21 bp duplex substrate. The settings on record: In vitro IC50 21 bp substrate 3′-P. The series is classed as biochemical. On the procedure: as §1, §2
The test system of the next series is HIV-1IIIB. The experiment in a line: Inhibition of HIV-induced cytopathic effect in MT-2 cell culture. The series is classed as cell-based. The following applies: MT-2 cells. How it is done: (§3) Inhibition of HIV-induced cytopathic effect in cell culture. The MT-2 cells were grown in RPMI-1640 medium with GlutaMAX™, supplemented with 10% (v/v) heat-inactivated fetal bovine serum (both from Gibco, Invitrogen corporation, Carlsbad). The cells were maintained at 37° C. in a humidified atmosphere of 5% CO2 in air. Every 4-5 days, cells were spun down and seeded at 2×10^5 cells/ml in new cell culture flasks. HIV ([…] isolate) was obtained from Advanced Biotechnology Incorporated (Columbia, Md.). The virus stock [3,2×10^4 CCID50 (50% cell culture infective dose) per ml as determined for MT-2 cells] was stored at −70° C. until used. Stock solutions of compounds were diluted using medium directly into 96-well assay plate (Costar, Corning inc, Corning, N.Y.).
(§4) Cells were then infected with 100 CCID50 or mock-infected. The cell cultures were incubated at 37° C. in a humidified atmosphere of 5% CO2 in air. […] The percent cell viability in drug treated uninfected and infected cells was determined based on the viability of the uninfected control drug treated cells. The concentration of drug required to inhibit approximately 50% of the HIV-1 induced cytotoxicity was calculated from the plot of compound concentration verses the percent viable cells.

The next series concerns the target HIV-1 protease (Human immunodeficiency virus type 1 group M subtype B, UniProt P04585). Briefly: Fluorimetric HIV-1 protease assay. The series is classed as biochemical. The settings on record: concentration up to 25 μM; data not shown. How it is done:
Fluorimetric HIV-1 protease assay. The fluorescent HIV-1 protease substrate (RE-(EDANS)-SQNYPIVQK-(DABCYL)-R) was obtained from Molecular Probes, Inc. (Eugene, Oreg.). Substrate and buffer were pre-warmed at 37° C. for at least 20 min before use. The protease (25 nM final concentration) was incubated in the manufacturer's recommended assay buffer (100 mM Na acetate, 1M NaCl, 1 mM EDTA, 1 mM DTT, 10% DMSO and 1 mg ml^−1 BSA pH 4.7) at 37° C. in the presence of 1-25 μM NSC 18806 for 10 min and then added to the warmed substrate solution (40 μM) containing the different treatments to initiate the reaction. Acetyl pepstatin (Sigma, St. Louis, Mo.) at 20 nM was used a positive HIV-1 protease inhibitor control. The total assay volume was 100 µL. Fluorescence was monitored for 30 min in a fluorescence microplate reader (FMAX, Molecular Devices, Sunnyvale, Calif.) with 355 nm excitation and 460 nm emission filters and the rate of reactions compared for the different conditions.

In series [3] the target is T2, Q148C/SSS-mutant integrase (Human immunodeficiency virus type 1 group M subtype B, UniProt P04585, C1203S/C1212S/C1427S/Q1295C).
T2 construct: 10 μM recombinant Q148C/SSS-mutant integrase was incubated with 10 μM DNA substrate; made in house
Briefly: biochemical. The series is classed as binding, HIV-1.
Protocol: Briefly, 10 μM recombinant Q148C/SSS-mutant integrase was incubated with 10 μM DNA substrate (FIG. 5A) containing tethered thiols in the presence of 20 mM Tris, pH 7.4, 10% glycerol and 7.5 mM of divalent cations (MgCl2 or MnCl2 as indicated) for 20 min at 37° C. Reactions were stopped by the addition of 20 mM methylmethanethiosulfonate (capping reagent). Non-reducing gel loading buffer (100 mM Tris-HCl, pH 6.8, 4% SDS, 0.2% bromophenol blue, 20% glycerol) was added and samples were heated at 95° C. before loading onto 16% tricine gels (Invitrogen, Carlsbad, Calif.). Gels were stained with Microwave Blue according to manufacturer's recommendations (Protiga, Frederick, Md.).
DNA (20 nM) containing a [5′-^32P]-label on one strand and a thiol-modified cytosine on the other strand was added and reactions were capped with methylmethanethiosulfonate at 1 minute. Following capping, non-reducing gel loading buffer (100 mM Tris-HCl, pH 6.8, 4% SDS, 0.2% bromophenol blue, 20% glycerol) was added and samples were directly loaded on 16% tricine gels (Invitrogen, Carlsbad, Calif.). Gels were dried and reaction products were quantitated using the same way as described above.

Series [4] deals with T1, HIV-1 integrase. The experiment in a line: Strand transfer assay with preprocessed (19/21) DNA substrate. The series is classed as biochemical. The settings on record: In vitro IC50 Preprocessed substrate. On the procedure:
as §1, §2

Series [5] concerns the target T1, HIV-1 integrase. Briefly: Integrase binding to HIV DNA, Schiff base crosslinking assay. The following applies: Mg2+. On the procedure:
Integrase binding to HIV DNA using the shiff-base assay. The shiff-base assay was performed as described (Mazumder and Pommier, 1995). Briefly, 300 nM recombinant IN was incubated with inhibitors (at the indicated concentration) for 15 min at 37° C. Subsequently, 20 nM of 5′-end labeled substrate containing the abasic oligonucleotide (FIG. 6A) was added for 10 min at room temperature in reaction buffer described above for integrase catalytic assays. A freshly prepared solution of sodium borohydride (0.1 M final concentration) was added for 5 min. An equal volume (10 μl) of 2×SDS-polyacrylamide gel electrophoresis buffer (Invitrogen, Carlsbad, Calif.) was added in each reaction. Reaction products were heated at 95° C. for 1 min before analysis by electrophoresis in a 12-20% polyacrylamide gels (Invitrogen, Calif., USA). Gels were dried and reaction products were quantitated using the same method as described above.

The next series concerns MT-2 cells. The series is classed as cell-based. The settings on record: human, 4 days. How it is done:
as §3, §4

The target of series [6] is T1, HIV-1 integrase. The experiment in a line: Integrase catalytic assay, strand transfer (ST), 21 bp duplex substrate. The series is classed as biochemical. The settings on record: for IC50: In vitro IC50 21 bp substrate ST. On the procedure: as §1, §2

`CC(C)c1ccc(O)c(=O)c(O)c1` [NSC 18806, β-thujaplicinol]: the IC50 is more than 333 µM on HIV-1 integrase [1] (Mg2+); 23.8 µM on HIV-1 integrase [1] (Mn2+); 117 ± 7.1 µM on HIV-1 integrase [2] (Mg2+); 24.6 µM against HIV-1 integrase [2] (Mn2+); approximately 12 µM in the series on HIV-1IIIB (Human immunodeficiency virus 1, MT2, 96 h, four days after infection, read-out: estimated IC50, protection of infected cells from HIV-induced cytopathic effect); 32 µM in series [3]. The half-inhibitory concentration (IC50) against HIV-1 integrase [4] (Mg2+) was 18.1 ± 6.2 µM; on HIV-1 integrase [4] (Mn2+), 5 µM; on HIV-1 integrase [6] (Mg2+), 21.6 ± 3.4 µM; against HIV-1 integrase [6] (Mn2+), 4.8 ± 2.5 µM. For the same molecule, the “inhibition of disintegration (in words)” value against HIV-1 integrase [1] (Mg2+) is “inability of NSC 18806 to inhibit disintegration”; at HIV-1 integrase [1] (Mn2+), “only inhibited in the presence of Mn^2+ at high drug concentration”. The inhibition at 333 µM at HIV-1 integrase [1] (read-out: inhibition activity, disintegration) was in the range of 5 to 20%. In the series with HIV-1IIIB, the “activity in HIV infectivity assay (in words)” value was “exhibits cytoprotective activity”. At HIV-1 protease, the “inhibition of HIV-1 protease (in words)” value is “failed to inhibit HIV-1 protease”. Also, in series [3] (drug 1 mM, Mg2+ or Mn2+ (FIG. 5B)), the “inhibition of integrase-DNA disulfide-crosslinking (in words)” value is given as “metal-dependent inhibition”. At HIV-1 integrase [5], the “inhibition of Schiff base IN-DNA crosslinking (in words)” value is reported as “did not block”. Besides, the “concentrations with presence of toxicity” value in the series on MT-2 cells is not below 12 µM. In addition, the “IC50 for 3′-P relative to IC50 for ST” value on HIV-1 integrase [6] (21 bp duplex, in the presence of either Mg2+ or Mn2+) is given as “approximately 5 fold”.

The values are drawn from US20100152301A1, “Treatment of Viral Infections” (GOVERNMENT OF THE US, AS REPRESENTED BY THE SECRETARY, …, priority 2005, published 2010).
